Values after ≈ are worked out from the molar mass of the structure shown.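 Cultured in 96-well plates, cells were exposed to test compound for 48 hours across five concentrations. GI50 marks 50% less growth. The concentration for full growth arrest is given as TGI.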
Key:
Experiment in all cases: NCI-60 cell line screen, 48 h
UACC-62 melanoma = tested on: UACC-62 melanoma
OVCAR-3 ovarian = tested on: OVCAR-3 ovarian
RPMI-8226 leukemia = tested on: RPMI-8226 leukemia
SK-MEL-5 melanoma = tested on: SK-MEL-5 melanoma
NCI-H460 lung = tested on: NCI-H460 lung
HT29 colon = tested on: HT29 colon
UACC-257 melanoma = tested on: UACC-257 melanoma
MDA-MB-435 = tested on: MDA-MB-435
MDA-MB-231 breast = tested on: MDA-MB-231 breast
U251 CNS = tested on: U251 CNS

| Structure (SMILES) | GI50 (UACC-62 melanoma) | TGI (UACC-62 melanoma) | GI50 (OVCAR-3 ovarian) | TGI (OVCAR-3 ovarian) | GI50 (RPMI-8226 leukemia) | TGI (RPMI-8226 leukemia) | GI50 (SK-MEL-5 melanoma) | TGI (SK-MEL-5 melanoma) | GI50 (NCI-H460 lung) | TGI (NCI-H460 lung) | GI50 (HT29 colon) | TGI (HT29 colon) | GI50 (UACC-257 melanoma) | TGI (UACC-257 melanoma) | GI50 (MDA-MB-435) | TGI (MDA-MB-435) | GI50 (MDA-MB-231 breast) | TGI (MDA-MB-231 breast) | GI50 (U251 CNS) | TGI (U251 CNS) |
| --- | --- | --- | --- | --- | --- | --- | --- | --- | --- | --- | --- | --- | --- | --- | --- | --- | --- | --- | --- | --- |
| O=C1NN(C2=NNC3(C(=O)N2)c2ccccc2-c2ccccc23)C(c2ccccc2)=N/C1=C/c1ccc(Cl)cc1 | 29.8 mg/L (≈ 54.7 µM) | 65.6 mg/L | 29.5 mg/L (≈ 54.2 µM) | 69.3 mg/L | 63.6 mg/L (≈ 117 µM) | > 150 mg/L | 46.4 mg/L (≈ 85.1 µM) | > 150 mg/L | 48.7 mg/L (≈ 89.3 µM) | > 150 mg/L | 89.6 mg/L (≈ 164 µM) | > 150 mg/L | 68 mg/L (≈ 125 µM) | > 150 mg/L | 44.2 mg/L (≈ 81.2 µM) | > 150 mg/L | 47.9 mg/L (≈ 87.8 µM) | > 150 mg/L | 41.3 mg/L (≈ 75.8 µM) | 143 mg/L |
| CCOC(=O)c1csc(NC(=O)C(C)N2CCCC2)n1 (stereo not given) |  | > 100 µM |  | > 100 µM |  | > 100 µM |  | > 100 µM |  | > 100 µM |  | > 100 µM |  | > 100 µM |  | > 100 µM |  | > 100 µM |  | > 100 µM |
| COC(=O)C(Cc1cn(C(C)n2cc(CC(NC(C)=O)C(=O)OC)c3ccccc32)c2ccccc12)NC(C)=O (stereo not given) |  | > 100 µM |  | > 100 µM |  | > 100 µM |  | > 100 µM |  | > 100 µM |  | > 100 µM |  | > 100 µM |  | > 100 µM |  | > 100 µM |  | > 100 µM |

— PubChem BioAssay (NCI)
